Results on two compounds are retold here after patent US11452710B1, “Micronutrient and plant extract composition and method of improving bone health” (priority 2022, dated 2022).

This experiment relates to alkaline phosphatase (ALP). The conditions noted are these: 0.1-5 μg/ml, 48 h at 37° C., n=4; compared to the control and to the most stimulating agents (boron line 10, MSM line 15).

Procedure: In vitro differentiation (alkaline phosphatase activity (ALP) and core-binding factor alpha 1 (Cbfa-1) as a marker) assay: Human osteoblasts (1×10^5 cells/well of a 96-well plate) in a 100 μl cell culture medium were exposed to select micronutrients and plant extracts (0.1-5 μg/ml) for 48 h at 37° C., and lysed with assay buffer. Subsequently, 5 mM p-nitrophenyl phosphate (pNPP), as a phosphate substrate for alkaline phosphates, was added into all experimental wells for 1 h, followed by a stop solution. The absorbance was measured at 450 nm within 5 min. using a microplate reader.

As for boron, the “alkaline phosphatase (ALP) activity level in human osteoblasts” value was “most stimulating agents”.
The result for `CS(C)(=O)=O` [MSM, methylsulfonylmethane] reads “most stimulating agents”.
